From PMC4464186 (EXCLI Journal, 2014)

Experiments:
[1] = system: metrazol-induced convulsion; settings: metrazol-induced convulsion model, ref Sridhar et al., 2002, cited from earlier work
Albino mice = format: in vivo; settings: 100 mg/kg i.p.; with respect to control
mice = format: in vivo; settings: rotarod; doses up to 300 mg/kg; 0.5 and 4.0 h

Cc1ccc2c(c1)C(=Nc1ccc(Cl)cc1)C(=O)N2 [3-(4-Chlorophenylimino)-5-methyl-1,3-dihydro-indol-2-one]
protection ([1]; at 100 mg kg^-1): 87% | ED50 [1]: 53.61 mg/kg

O=c1nc2[nH]c3ccc(Cl)cc3c2n[nH]1 [5e, 8-chloro-2H-[1,2,4]triazino[5,6-b]indol-3(5H)-one]
% Increased of immobility (Albino mice): 54.39% | neurotoxicity (motor impairment), in words (mice): no motor impairment effect

O=c1nc2[nH]c3c(Br)cc(Br)cc3c2n[nH]1 [5i, 6,8-dibromo-2H-[1,2,4]triazino[5,6-b]indol-3(5H)-one]
% Increased of immobility (Albino mice): 37.68%

Cn1c2nc(=O)[nH]nc2c2cc(Br)cc(Br)c21 [5k, 6,8-dibromo-5-methyl-2H-[1,2,4]triazino[5,6-b]indol-3(5H)-one]
% Increased of immobility (Albino mice): 45.96%

NC(=O)N1c2ccccc2C=Cc2ccccc21 [Carbamazepine, reference compound]
% Increased of immobility (Albino mice): 58.63%
